In one assay the target is Dipeptidyl peptidase 8 (Homo sapiens, UniProt Q6V1X1). Nature of the assay: Inhibition of DPP8.
The target of the next assay is Dipeptidyl peptidase 2 (Homo sapiens, UniProt Q9UHL4). Nature of the assay: Inhibition of QPP.
The next assay has as its target Dipeptidyl peptidase 9 (Homo sapiens, UniProt Q86TI2).
Another assay has as its target Dipeptidyl peptidase 4 (Homo sapiens, UniProt P27487).

Molecules are shown by their SMILES.

Dipeptidyl peptidase 4, sequence (P27487 whole entry): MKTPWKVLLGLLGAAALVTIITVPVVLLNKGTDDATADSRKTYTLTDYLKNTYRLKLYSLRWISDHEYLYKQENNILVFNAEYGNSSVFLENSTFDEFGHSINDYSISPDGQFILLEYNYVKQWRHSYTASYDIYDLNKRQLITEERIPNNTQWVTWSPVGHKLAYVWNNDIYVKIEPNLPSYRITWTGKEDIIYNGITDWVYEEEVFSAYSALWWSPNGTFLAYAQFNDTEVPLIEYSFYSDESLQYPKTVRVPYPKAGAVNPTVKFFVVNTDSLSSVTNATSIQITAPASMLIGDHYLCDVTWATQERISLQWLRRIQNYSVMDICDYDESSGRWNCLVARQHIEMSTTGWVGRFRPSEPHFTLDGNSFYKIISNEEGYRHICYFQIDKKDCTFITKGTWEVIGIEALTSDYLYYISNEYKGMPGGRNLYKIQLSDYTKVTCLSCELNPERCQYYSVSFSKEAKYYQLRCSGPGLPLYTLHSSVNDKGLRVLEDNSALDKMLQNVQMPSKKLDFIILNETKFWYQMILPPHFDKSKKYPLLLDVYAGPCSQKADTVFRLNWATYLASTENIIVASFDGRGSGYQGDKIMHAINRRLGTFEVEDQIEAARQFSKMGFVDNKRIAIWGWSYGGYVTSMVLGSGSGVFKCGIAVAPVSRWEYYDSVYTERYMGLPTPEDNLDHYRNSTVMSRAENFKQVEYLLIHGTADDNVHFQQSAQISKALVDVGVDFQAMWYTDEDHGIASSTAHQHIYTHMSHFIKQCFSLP
Dipeptidyl peptidase 8, sequence (Q6V1X1 whole entry): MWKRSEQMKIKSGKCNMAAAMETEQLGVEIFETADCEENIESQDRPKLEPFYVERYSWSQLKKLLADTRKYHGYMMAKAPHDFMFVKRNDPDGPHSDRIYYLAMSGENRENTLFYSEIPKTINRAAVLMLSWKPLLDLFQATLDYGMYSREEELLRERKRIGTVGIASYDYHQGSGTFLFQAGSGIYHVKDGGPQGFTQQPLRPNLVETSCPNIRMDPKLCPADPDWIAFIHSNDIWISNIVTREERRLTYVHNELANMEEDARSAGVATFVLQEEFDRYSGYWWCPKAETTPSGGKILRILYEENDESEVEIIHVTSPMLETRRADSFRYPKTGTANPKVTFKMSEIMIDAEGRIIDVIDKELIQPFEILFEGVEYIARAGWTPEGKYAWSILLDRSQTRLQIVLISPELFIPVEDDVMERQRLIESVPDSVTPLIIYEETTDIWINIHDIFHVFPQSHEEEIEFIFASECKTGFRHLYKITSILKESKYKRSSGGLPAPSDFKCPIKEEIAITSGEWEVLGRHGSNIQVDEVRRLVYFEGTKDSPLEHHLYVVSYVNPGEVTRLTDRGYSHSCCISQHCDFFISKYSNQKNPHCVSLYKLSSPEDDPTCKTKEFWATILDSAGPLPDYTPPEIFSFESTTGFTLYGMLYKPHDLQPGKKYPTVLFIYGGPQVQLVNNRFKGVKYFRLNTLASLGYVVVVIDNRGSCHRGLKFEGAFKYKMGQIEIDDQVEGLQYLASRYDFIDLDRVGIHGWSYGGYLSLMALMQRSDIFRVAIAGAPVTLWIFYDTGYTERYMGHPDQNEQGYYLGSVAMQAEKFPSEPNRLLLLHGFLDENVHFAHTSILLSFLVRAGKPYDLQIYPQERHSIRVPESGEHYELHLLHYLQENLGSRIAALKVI
Dipeptidyl peptidase 9, sequence (Q86TI2 whole entry): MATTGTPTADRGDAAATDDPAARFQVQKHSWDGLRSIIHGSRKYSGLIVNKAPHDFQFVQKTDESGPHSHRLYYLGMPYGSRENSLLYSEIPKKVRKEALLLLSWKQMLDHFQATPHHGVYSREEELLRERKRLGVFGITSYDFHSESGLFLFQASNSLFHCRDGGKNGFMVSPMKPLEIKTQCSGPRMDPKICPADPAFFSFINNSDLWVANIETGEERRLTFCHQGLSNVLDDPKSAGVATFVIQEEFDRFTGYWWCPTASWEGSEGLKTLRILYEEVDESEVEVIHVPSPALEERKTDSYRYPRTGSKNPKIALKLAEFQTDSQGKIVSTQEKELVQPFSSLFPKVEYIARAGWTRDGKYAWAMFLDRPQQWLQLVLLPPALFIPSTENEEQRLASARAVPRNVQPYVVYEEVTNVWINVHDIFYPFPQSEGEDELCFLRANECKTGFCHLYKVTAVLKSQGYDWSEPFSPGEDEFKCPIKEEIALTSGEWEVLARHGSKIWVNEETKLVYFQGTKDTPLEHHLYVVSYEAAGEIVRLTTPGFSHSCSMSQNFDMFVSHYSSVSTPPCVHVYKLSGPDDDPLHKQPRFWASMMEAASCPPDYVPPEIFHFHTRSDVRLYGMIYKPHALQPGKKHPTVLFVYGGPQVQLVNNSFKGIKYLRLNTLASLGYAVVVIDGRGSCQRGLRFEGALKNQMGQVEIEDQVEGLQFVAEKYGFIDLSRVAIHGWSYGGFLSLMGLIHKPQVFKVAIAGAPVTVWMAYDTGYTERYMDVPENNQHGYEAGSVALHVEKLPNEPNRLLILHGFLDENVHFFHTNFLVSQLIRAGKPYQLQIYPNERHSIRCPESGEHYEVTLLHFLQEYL

One may read the IC50 as the midpoint of a concentration-inhibition curve. A lower IC50 goes with greater potency. Regarding `N[C@H]1C[C@@H](N2CCn3c(nnc3C(F)(F)F)C2)CC[C@@H]1c1cc(F)c(F)cc1F`, the IC50 at Dipeptidyl peptidase 8, against Dipeptidyl peptidase 2 and on Dipeptidyl peptidase 9 was over 100 µM throughout.

For the molecule `N[C@H]1C[C@@H](N2Cc3cnc(C4CC4)nc3C2)CC[C@@H]1c1cc(F)c(F)cc1F`, the IC50 amounted to 61 µM on Dipeptidyl peptidase 2 and 5.3 nM at Dipeptidyl peptidase 4.

As to `N[C@H]1C[C@@H](N2Cc3cncnc3C2)CC[C@@H]1c1cc(F)c(F)cc1F`, the IC50 against Dipeptidyl peptidase 2 was over 100 µM; on Dipeptidyl peptidase 4 it was 0.67 nM.

Consider `N[C@H]1C[C@@H](N2Cc3ccccc3C2)CC[C@@H]1c1cc(F)c(F)cc1F`, for which the half-maximal inhibitory concentration (IC50) was determined as 68 µM at Dipeptidyl peptidase 2 and 6.6 nM against Dipeptidyl peptidase 4.

(Values after ChEMBL document CHEMBL1148885, “Modeling assisted rational design of novel, potent, and selective pyrrolopyrimidine DPP-4 inhibitors” (Bioorg Med Chem Lett, 2007).)
